Experimental data as given in BigSolDB 2.1.

O=C1OC(=O)c2cc(Cl)ccc21
solubility (mole fraction)
Details | 283.15 K | 288.15 K | 293.15 K | 298.15 K | 303.15 K | 308.15 K | 313.15 K | 318.15 K | 323.15 K
in 1,4-dioxane | 0.0825 | 0.0992 | 0.124 | 0.142 | 0.166 | 0.205 | 0.25 | 0.298 | 0.359
in acetone | 0.201 | 0.222 | 0.246 | 0.287 | 0.316 | 0.369 | 0.427 | 0.473 | 0.522
in ethyl acetate | 0.178 | 0.184 | 0.206 | 0.228 | 0.261 | 0.293 | 0.326 | 0.377 | 0.437

O=C1OC(=O)c2c(Cl)cccc21
solubility (mole fraction)
Details | 283.15 K | 288.15 K | 293.15 K | 298.15 K | 303.15 K | 308.15 K | 313.15 K | 318.15 K | 323.15 K
in 1,4-dioxane | 0.185 | 0.226 | 0.268 | 0.296 | 0.328 | 0.367 | 0.396 | 0.42 | 0.439
in acetone | 0.167 | 0.182 | 0.202 | 0.218 | 0.234 | 0.261 | 0.291 | 0.32 | 0.357
in ethyl acetate | 0.107 | 0.112 | 0.121 | 0.133 | 0.154 | 0.169 | 0.191 | 0.225 | 0.265

O=C(O)c1ccc(Cl)cc1C(=O)O
in water
Details | solubility (mole fraction)
283.15 K | 0.0802
288.15 K | 0.0913
293.15 K | 0.109
298.15 K | 0.125
303.15 K | 0.145
308.15 K | 0.169
313.15 K | 0.2
318.15 K | 0.226
323.15 K | 0.262
328.15 K | 0.299
333.15 K | 0.349

O=C(O)c1cccc(Cl)c1C(=O)O
in water
Details | solubility (mole fraction)
283.15 K | 0.00201
288.15 K | 0.00221
293.15 K | 0.00248
298.15 K | 0.00281
303.15 K | 0.00315
308.15 K | 0.00346
313.15 K | 0.00383
318.15 K | 0.0043
323.15 K | 0.00473
328.15 K | 0.00517
333.15 K | 0.0056
